Experimental data taken from patent US20250152592A1, “PHARMACEUTICAL COMPOSITION COMPRISING ALLOPURINOL, FEBUXOSTAT OR PHARMACEUTICALLY ACCEPTABLE SALT THEREOF FOR PREVENTION OR TREATMENT OF CHRONIC KIDNEY DISEASE IN SUBJECT HAVING HIGH SERUM URIC ACID CONCENTRATION” (Indream Healthcare Inc., priority 2022, published 2025).

Test system: patients with gout and a history of major cardiovascular diseases
Test: eGFR over time by average serum uric acid concentration, analysis of clinical trial data
Format: in vivo, human
Details: allopurinol group
Procedure: In order to evaluate non-inferiority of febuxostat to allopurinol related to cardiovascular risk, a clinical trial was designed and proceeded.
A multicenter, randomized, double-blind non-inferiority trial was performed. The details of the clinical trial design have been published previously. An independent data and safety monitoring committee with access to unblinded data monitored the clinical trial. The statistical analysis for the data and the safety monitoring committee was performed by an independent statistical group (WebbWrites).
The patients were regarded as having a history of major cardiovascular diseases, if they had myocardial infarction, hospitalization for unstable angina, stroke, hospitalization for transient ischemic attack, peripheral vascular disease, or diabetes mellitus symptoms. All participants provided a prior informed consent form.
The patients were randomly assigned so that they received febuxostat or allopurinol administered once a day in a double-blind manner. The randomization was stratified according to the estimated creatinine clearance at baseline (patient group having an estimated creatinine clearance ≥60 ml per minute vs patient group having an estimated creatinine clearance ≥30 and <60 ml per minute).
The dose of allopurinol was modified according to a kidney function. The patients with the estimated creatinine clearance 60 ml or more per minute i) initially received allopurinol at a dose of 300 mg once a day, and the dose was increased in 100 mg increments monthly until the patient had the serum uric acid concentration of less than 6.0 mg per deciliter or the dosage of allopurinol was 600 mg once a day. The patient having the estimated creatinine clearance of 30 ml or more and less than 60 ml per minute initially received 200 mg of allopurinol, and then the dose was increased in 100 mg increments until the patient either had the serum uric acid concentration of less than 6.0 mg per deciliter or was receiving the allopurinol dose of 400 mg once daily.
The dose of febuxostat was not modified according to the kidney function. The patients who were randomly assigned to receive febuxostat initially received 40 mg once a daily, and continued to receive the same dosage if the serum uric acid concentration was less than 6.0 mg per deciliter after 2 weeks of the treatment. If the serum uric acid concentration was higher than 6.0 mg per deciliter at 2nd week visit, the dose of febuxostat was increased to 80 mg once daily for the remainder of the trial.
During the period, the administration of a double-blind and double-dummy trial medications was guided by an interactive voice-response system which was a procedure to prevent unblinding for the patients whose dose was not adjusted. After completing dose adjustment, the urate level was concealed from the investigators, and the treatment was managed throughout the trial using the interactive voice-response system.
Outpatient visits were conducted according to the following schedule: during screening and randomization, and at 2, 4, 6, 8, 10, 12, and 24 weeks after the randomization, and every 6 months during the subsequent years of the trial. The patients with reduced kidney function or, the patients aged 65 years or older at randomization were visited at 9 and 15 months for monitoring the serum chemical profile. If the patient agreed to be monitored, but would not return for study visit, telephone contact was made, but such method was not preferred or recommended.
In order to confirm the effect of allopurinol and febuxostat on the kidney disease, the data obtained in the clinical trial described above was analyzed.

SMILES: Oc1ncnc2[nH]ncc12 [allopurinol]
- eGFR Mean (95% CI) (Baseline blood glucose level ≥126, Average UA <6, Baseline): 63.77 (62.08-65.46) ml/min/1.73 m^2
- eGFR Mean (95% CI) (Baseline blood glucose level ≥126, Average UA <6, Month 3): 63.92 (62.16-65.69) ml/min/1.73 m^2
- eGFR Mean (95% CI) (Baseline blood glucose level ≥126, Average UA <6, Month 6): 63.77 (61.98-65.56) ml/min/1.73 m^2
- eGFR Mean (95% CI) (Baseline blood glucose level ≥126, Average UA <6, Month 12): 64.33 (62.51-66.15) ml/min/1.73 m^2
- eGFR Mean (95% CI) (Baseline blood glucose level ≥126, Average UA <6, Month 18): 64.04 (61.97-66.10) ml/min/1.73 m^2
- eGFR Mean (95% CI) (Baseline blood glucose level ≥126, Average UA <6, Month 24): 64.60 (62.41-66.78) ml/min/1.73 m^2
- eGFR Mean (95% CI) (Baseline blood glucose level ≥126, Average UA <6, Month 30): 63.32 (60.93-65.71) ml/min/1.73 m^2
- eGFR Mean (95% CI) (Baseline blood glucose level ≥126, Average UA <6, Month 36): 63.57 (60.97-66.18) ml/min/1.73 m^2
- eGFR Mean (95% CI) (Baseline blood glucose level ≥126, Average UA <6, Month 42): 62.14 (59.40-64.89) ml/min/1.73 m^2
- eGFR Mean (95% CI) (Baseline blood glucose level ≥126, Average UA <6, Month 48): 64.42 (61.23-67.61) ml/min/1.73 m^2
- eGFR Mean (95% CI) (Baseline blood glucose level ≥126, Average UA <6, Month 54): 64.35 (61.09-67.61) ml/min/1.73 m^2
- eGFR Mean (95% CI) (Baseline blood glucose level ≥126, Average UA <6, Month 60): 64.49 (60.29-68.70) ml/min/1.73 m^2
- eGFR Mean (95% CI) (Baseline blood glucose level ≥126, Average UA <6, Week 2): 63.46 (61.70-65.22) ml/min/1.73 m^2
- eGFR Mean (95% CI) (Baseline blood glucose level ≥126, Average UA ≥6, Baseline): 62.56 (60.14-64.98) ml/min/1.73 m^2
- eGFR Mean (95% CI) (Baseline blood glucose level ≥126, Average UA ≥6, Month 3): 62.44 (59.88-65.00) ml/min/1.73 m^2
- eGFR Mean (95% CI) (Baseline blood glucose level ≥126, Average UA ≥6, Month 6): 61.37 (58.85-63.90) ml/min/1.73 m^2
- eGFR Mean (95% CI) (Baseline blood glucose level ≥126, Average UA ≥6, Month 12): 62.57 (60.02-65.12) ml/min/1.73 m^2
- eGFR Mean (95% CI) (Baseline blood glucose level ≥126, Average UA ≥6, Month 18): 60.70 (57.80-63.60) ml/min/1.73 m^2
- eGFR Mean (95% CI) (Baseline blood glucose level ≥126, Average UA ≥6, Month 24): 60.72 (57.46-63.99) ml/min/1.73 m^2
- eGFR Mean (95% CI) (Baseline blood glucose level ≥126, Average UA ≥6, Month 30): 60.06 (56.44-63.69) ml/min/1.73 m^2
- eGFR Mean (95% CI) (Baseline blood glucose level ≥126, Average UA ≥6, Month 36): 59.78 (55.61-63.95) ml/min/1.73 m^2
- eGFR Mean (95% CI) (Baseline blood glucose level ≥126, Average UA ≥6, Month 42): 57.66 (52.84-62.48) ml/min/1.73 m^2
- eGFR Mean (95% CI) (Baseline blood glucose level ≥126, Average UA ≥6, Month 48): 56.80 (51.66-61.93) ml/min/1.73 m^2
- eGFR Mean (95% CI) (Baseline blood glucose level ≥126, Average UA ≥6, Month 54): 57.15 (51.53-62.78) ml/min/1.73 m^2
- eGFR Mean (95% CI) (Baseline blood glucose level ≥126, Average UA ≥6, Month 60): 54.70 (48.12-61.28) ml/min/1.73 m^2
- eGFR Mean (95% CI) (Baseline blood glucose level ≥126, Average UA ≥6, Week 2): 62.27 (59.80-64.73) ml/min/1.73 m^2
- eGFR Mean (95% CI) (DBP <80, Average UA <6, Baseline): 62.91 (61.68-64.15) ml/min/1.73 m^2
- eGFR Mean (95% CI) (DBP <80, Average UA <6, Month 3): 63.26 (61.95-64.58) ml/min/1.73 m^2
- eGFR Mean (95% CI) (DBP <80, Average UA <6, Month 6): 63.55 (62.23-64.87) ml/min/1.73 m^2
- eGFR Mean (95% CI) (DBP <80, Average UA <6, Month 12): 64.71 (63.34-66.07) ml/min/1.73 m^2
- eGFR Mean (95% CI) (DBP <80, Average UA <6, Month 18): 64.41 (62.91-65.90) ml/min/1.73 m^2
- eGFR Mean (95% CI) (DBP <80, Average UA <6, Month 24): 64.00 (62.43-65.57) ml/min/1.73 m^2
- eGFR Mean (95% CI) (DBP <80, Average UA <6, Month 30): 64.49 (62.77-66.21) ml/min/1.73 m^2
- eGFR Mean (95% CI) (DBP <80, Average UA <6, Month 36): 63.61 (61.80-65.43) ml/min/1.73 m^2
- eGFR Mean (95% CI) (DBP <80, Average UA <6, Month 42): 63.91 (61.95-65.87) ml/min/1.73 m^2
- eGFR Mean (95% CI) (DBP <80, Average UA <6, Month 48): 64.88 (62.69-67.07) ml/min/1.73 m^2
- eGFR Mean (95% CI) (DBP <80, Average UA <6, Month 54): 64.19 (61.76-66.62) ml/min/1.73 m^2
- eGFR Mean (95% CI) (DBP <80, Average UA <6, Month 60): 64.73 (61.86-67.61) ml/min/1.73 m^2
- eGFR Mean (95% CI) (DBP <80, Average UA <6, Week 2): 62.85 (61.57-64.14) ml/min/1.73 m^2
- eGFR Mean (95% CI) (DBP <80, Average UA ≥6, Baseline): 60.15 (58.18-62.12) ml/min/1.73 m^2
- eGFR Mean (95% CI) (DBP <80, Average UA ≥6, Month 3): 61.22 (59.20-63.24) ml/min/1.73 m^2
- eGFR Mean (95% CI) (DBP <80, Average UA ≥6, Month 6): 61.19 (59.14-63.24) ml/min/1.73 m^2
- eGFR Mean (95% CI) (DBP <80, Average UA ≥6, Month 12): 60.39 (58.37-62.42) ml/min/1.73 m^2
- eGFR Mean (95% CI) (DBP <80, Average UA ≥6, Month 18): 60.06 (57.73-62.40) ml/min/1.73 m^2
- eGFR Mean (95% CI) (DBP <80, Average UA ≥6, Month 24): 59.51 (56.88-62.15) ml/min/1.73 m^2
- eGFR Mean (95% CI) (DBP <80, Average UA ≥6, Month 30): 59.37 (56.35-62.39) ml/min/1.73 m^2
- eGFR Mean (95% CI) (DBP <80, Average UA ≥6, Month 36): 58.89 (55.43-62.34) ml/min/1.73 m^2
- eGFR Mean (95% CI) (DBP <80, Average UA ≥6, Month 42): 57.48 (53.76-61.19) ml/min/1.73 m^2
- eGFR Mean (95% CI) (DBP <80, Average UA ≥6, Month 48): 59.25 (55.00-63.51) ml/min/1.73 m^2
- eGFR Mean (95% CI) (DBP <80, Average UA ≥6, Month 54): 58.18 (53.60-62.76) ml/min/1.73 m^2
- eGFR Mean (95% CI) (DBP <80, Average UA ≥6, Week 2): 61.16 (59.19-63.13) ml/min/1.73 m^2
- eGFR Mean (95% CI) (No congestive cardiac failure history, Average UA <6, Baseline): 66.85 (65.82-67.88) ml/min/1.73 m^2
